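Growth conditions: 96-well plates. Treatment: test compound, 48 hours, 5 concentrations. Analysis: linear interpolation between bracketing concentrations; unreached endpoints set to highest concentration. GI50 marks 50% less growth.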 Calls of active or inactive are those of the source. No stated cut-off is given here; in the data, active = GI50 up to about 1.1 µM and inactive = higher.
Assays:
Experiment in all cases: inhibition of tumour cell growth, NCI panel, 48 h
HOP-62 = test system: HOP-62
EKVX = test system: EKVX
SW-620 = test system: SW-620
NCI-H23 = test system: NCI-H23
PC-3 = test system: PC-3
NCI-H460 = test system: NCI-H460
SK-MEL-28 = test system: SK-MEL-28
U-251 = test system: U-251
OVCAR-8 = test system: OVCAR-8
KM12 = test system: KM12
HCT-15 = test system: HCT-15
SK-OV-3 = test system: SK-OV-3
ACHN = test system: ACHN
HOP-92 = test system: HOP-92
UO-31 = test system: UO-31
T47D = test system: T47D
786-0 = test system: 786-0
Malme-3M = test system: Malme-3M
NCI-H226 = test system: NCI-H226
MDA-MB-435 = test system: MDA-MB-435
LOX IMVI = test system: LOX IMVI
HL-60 = test system: HL-60
SF-268 = test system: SF-268
NCI-H522 = test system: NCI-H522
NCI/ADR-RES = test system: NCI/ADR-RES
SNB-19 = test system: SNB-19
MDA-MB-231 = test system: MDA-MB-231
OVCAR-4 = test system: OVCAR-4
A549 = test system: A549
BT-549 = test system: BT-549
UACC-62 = test system: UACC-62
OVCAR-5 = test system: OVCAR-5
HCC 2998 = test system: HCC 2998
SN12C = test system: SN12C
SF-539 = test system: SF-539
A498 = test system: A498
CCRF-CEM = test system: CCRF-CEM
SK-MEL-5 = test system: SK-MEL-5
OVCAR-3 = test system: OVCAR-3
TK-10 = test system: TK-10
IGROV-1 = test system: IGROV-1
M14 = test system: M14
MCF7 = test system: MCF7
RXF 393 = test system: RXF 393
SR = test system: SR
SNB-75 = test system: SNB-75
HCT-116 = test system: HCT-116
MDA-N = test system: MDA-N
HT-29 = test system: HT-29
RPMI-8226 = test system: RPMI-8226
CAKI-1 = test system: CAKI-1
DU-145 = test system: DU-145
UACC-257 = test system: UACC-257
MOLT-4 = test system: MOLT-4
SF-295 = test system: SF-295
K562 = test system: K562
COLO 205 = test system: COLO 205
Hs-578T = test system: Hs-578T
SK-MEL-2 = test system: SK-MEL-2

Compound: CC(C)NC(=O)OCc1c(COC(=O)NC(C)C)c(-c2ccc[n+](COC(=O)C(C)C)c2)n2c1CCC2
- GI50 (HOP-62): > 63.5 µM (inactive)
- GI50 (EKVX): > 100 µM (inactive)
- GI50 (SW-620): 55.3 µM (inactive)
- GI50 (NCI-H23): 33.5 µM (inactive)
- GI50 (PC-3): 59.3 µM (inactive)
- GI50 (NCI-H460): 21.6 µM (inactive)
- GI50 (SK-MEL-28): > 100 µM (inactive)
- GI50 (U-251): > 75.5 µM (inactive)
- GI50 (OVCAR-8): > 72.8 µM (inactive)
- GI50 (KM12): > 100 µM (inactive)
- GI50 (HCT-15): > 71.9 µM
- GI50 (SK-OV-3): > 100 µM (inactive)
- GI50 (ACHN): 29.1 µM (inactive)
- GI50 (HOP-92): 44.1 µM (inactive)
- GI50 (UO-31): 52.4 µM (inactive)
- GI50 (T47D): > 81.3 µM (inactive)
- GI50 (786-0): 34.6 µM (inactive)
- GI50 (Malme-3M): > 63.5 µM (inactive)
- GI50 (NCI-H226): > 100 µM (inactive)
- GI50 (MDA-MB-435): > 100 µM (inactive)
- GI50 (LOX IMVI): 37.7 µM (inactive)
- GI50 (HL-60): 16 µM (inactive)
- GI50 (SF-268): 52.4 µM (inactive)
- GI50 (NCI-H522): 34.5 µM (inactive)
- GI50 (NCI/ADR-RES): 63.7 µM (inactive)
- GI50 (SNB-19): > 100 µM (inactive)
- GI50 (MDA-MB-231): > 100 µM (inactive)
- GI50 (OVCAR-4): > 87.3 µM (inactive)
- GI50 (A549): > 91.4 µM (inactive)
- GI50 (BT-549): 81.1 µM (inactive)
- GI50 (UACC-62): 26.9 µM (inactive)
- GI50 (OVCAR-5): > 100 µM (inactive)
- GI50 (HCC 2998): > 100 µM (inactive)
- GI50 (SN12C): 37.5 µM (inactive)
- GI50 (SF-539): 31.8 µM (inactive)
- GI50 (A498): 23.1 µM (inactive)
- GI50 (CCRF-CEM): 17.2 µM (inactive)
- GI50 (SK-MEL-5): > 94.4 µM (inactive)
- GI50 (OVCAR-3): > 67.8 µM (inactive)
- GI50 (TK-10): > 91.4 µM (inactive)
- GI50 (IGROV-1): > 67.6 µM (inactive)
- GI50 (M14): 61.5 µM (inactive)
- GI50 (MCF7): 55.6 µM (inactive)
- GI50 (RXF 393): 42.4 µM (inactive)
- GI50 (SR): 8.53 µM (inactive)
- GI50 (SNB-75): 52.1 µM (inactive)
- GI50 (HCT-116): 54.7 µM (inactive)
- GI50 (MDA-N): > 100 µM (inactive)
- GI50 (HT-29): 73.8 µM (inactive)
- GI50 (RPMI-8226): 55.2 µM (inactive)
- GI50 (CAKI-1): 17.3 µM (inactive)
- GI50 (DU-145): 65.8 µM (inactive)
- GI50 (UACC-257): > 100 µM (inactive)
- GI50 (MOLT-4): 13.6 µM (inactive)
- GI50 (SF-295): 68.9 µM (inactive)
- GI50 (K562): 56.6 µM (inactive)
- GI50 (COLO 205): > 72.3 µM (inactive)
- GI50 (Hs-578T): > 100 µM (inactive)
- GI50 (SK-MEL-2): > 83.4 µM (inactive)

Compound: CCOC(=O)/C=C(\C(=O)OCC)n1cc(C)c(=O)n(Cc2cn(CCCCOC(C)=O)nn2)c1=O
- GI50 (HOP-62): 18.4 µM (inactive)
- GI50 (EKVX): 9.04 µM (inactive)
- GI50 (SW-620): 3.47 µM (inactive)
- GI50 (NCI-H23): 14.2 µM (inactive)
- GI50 (PC-3): 14.3 µM (inactive)
- GI50 (NCI-H460): 8.18 µM (inactive)
- GI50 (SK-MEL-28): 11.5 µM (inactive)
- GI50 (U-251): 15.1 µM (inactive)
- GI50 (OVCAR-8): 8.02 µM (inactive)
- GI50 (KM12): 18.5 µM (inactive)
- GI50 (HCT-15): 6.37 µM
- GI50 (SK-OV-3): 32.4 µM (inactive)
- GI50 (ACHN): 4.28 µM (inactive)
- GI50 (HOP-92): 2.15 µM (inactive)
- GI50 (UO-31): 14.5 µM (inactive)
- GI50 (T47D): 11.6 µM (inactive)
- GI50 (786-0): 4.43 µM (inactive)
- GI50 (Malme-3M): 2.04 µM (inactive)
- GI50 (NCI-H226): 11.3 µM (inactive)
- GI50 (MDA-MB-435): 9.95 µM (inactive)
- GI50 (LOX IMVI): 6.62 µM (inactive)
- GI50 (HL-60): 2.27 µM (inactive)
- GI50 (SF-268): 14.2 µM (inactive)
- GI50 (NCI-H522): 1.41 µM (inactive)
- GI50 (NCI/ADR-RES): 19.6 µM (inactive)
- GI50 (SNB-19): 20 µM (inactive)
- GI50 (MDA-MB-231): 15.7 µM (inactive)
- GI50 (OVCAR-4): 23.2 µM (inactive)
- GI50 (A549): 19.4 µM (inactive)
- GI50 (BT-549): 10.5 µM (inactive)
- GI50 (UACC-62): 15.9 µM (inactive)
- GI50 (OVCAR-5): 12.4 µM (inactive)
- GI50 (HCC 2998): 18.3 µM (inactive)
- GI50 (SN12C): 20.7 µM (inactive)
- GI50 (SF-539): 1.95 µM (inactive)
- GI50 (A498): 18.9 µM (inactive)
- GI50 (CCRF-CEM): 1.83 µM (inactive)
- GI50 (SK-MEL-5): 17.1 µM (inactive)
- GI50 (OVCAR-3): 13.3 µM (inactive)
- GI50 (TK-10): 7.38 µM (inactive)
- GI50 (IGROV-1): 13.6 µM (inactive)
- GI50 (M14): 11.9 µM (inactive)
- GI50 (MCF7): 5.47 µM (inactive)
- GI50 (RXF 393): 1.48 µM (inactive)
- GI50 (SR): 3.05 µM (inactive)
- GI50 (SNB-75): 15.7 µM (inactive)
- GI50 (HCT-116): 11.3 µM (inactive)
- GI50 (MDA-N): 20.7 µM (inactive)
- GI50 (HT-29): 8.32 µM (inactive)
- GI50 (RPMI-8226): 7.35 µM (inactive)
- GI50 (CAKI-1): 3.92 µM (inactive)
- GI50 (DU-145): 19.8 µM (inactive)
- GI50 (UACC-257): 16.1 µM (inactive)
- GI50 (MOLT-4): 2.44 µM (inactive)
- GI50 (SF-295): 18.4 µM (inactive)
- GI50 (K562): 2.53 µM (inactive)
- GI50 (COLO 205): 2.98 µM (inactive)
- GI50 (Hs-578T): 16.3 µM (inactive)
- GI50 (SK-MEL-2): 15.9 µM (inactive)
